Non-standard residues stand in square brackets, D forms with d. Residues, ends and D or L forms follow the SMILES beside them. No end group written: not given here.

For experiment [1], the system named is ES cell-derived cardiomyocytes. Kind of experiment: Interference of compounds with ET-1- or PE-induced hypertrophy of ES cell-derived cardiomyocytes (ANF/BNP RT-PCR).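 As to all read-outs here: mRNA levels of ANF and BNP quantified from RT-PCR products by densitometry of bands after agarose gel separation.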 The format is cell-based, mouse. Conditions: for ANF induction (up-regulation) upon ET-1 stimulation, in words / BNP induction (up-regulation) upon ET-1 stimulation, in words: 100 nM ET-1, 24 h; for ANF induction (up-regulation) upon ET-1 stimulation, in words / BNP induction (up-regulation) upon ET-1 stimulation, in words / ANF induction (up-regulation) upon PE stimulation, in words / BNP induction (up-regulation) upon PE stimulation, in words: compound concentration as in Table 1, summary of Table 1; for ANF induction (up-regulation) upon PE stimulation, in words / BNP induction (up-regulation) upon PE stimulation, in words: 100 μM PE.
Method: PCR products were separated by agarose gel electrophoresis and band intensity was analysed using the BioDocAnalyze system (Biometra).
ES cell-derived cardiomyocytes were stimulated with either 100 nM endothelin-1 (ET-1) or 100 μM phenylephrine (PE) in the presence of the compounds indicated. After 24 hours expression of ANF and BNP mRNA was analyzed by RT-PCR.

Experiment [2] relates to ES cell-derived cardiomyocytes. Kind of experiment: Induction of ANF and BNP expression by hypertrophic stimuli (RT-PCR, FIG. 3). The format is cell-based, mouse. Conditions: suspension culture; 24 h serum starvation, then 24 h stimulation; endothelin-1 100 nM, phenylephrine 200 μM, Angiotensin II 100 nM. The protocol:
Cardiomyocytes differentiated from ES cells were serum-starved for 24 h and subsequently stimulated by endothelin-1 (100 nM; lanes 1, 6, 11), phenylephrine (200 μM; lanes 2, 7, […]) or Angiotensin II (100 nM; lanes 3, 8, 13). Non-stimulated controls were cultured in serum-free medium (lanes 4, 9, 14) or serum-supplemented medium (lanes 5, 10, 15). Subsequently, RNA was extracted and cDNA was synthesized using random hexamer priming. ANF, BNP, and gapdh cDNAs were amplified and PCR products were analyzed by agarose gel electrophoresis. M, size marker. Amplification parameters were as follows. cDNAs were amplified for 32 (ANF and BNP) or 26 (gapdh) PCR cycles consisting each of 1 min at 94° C., 1 min at 56° C., and 1 min at 72° C. The following primers were used: ANF-5′, 5′-[…]-3′ (SEQ ID NO: 14); ANF-3′, 5′-[…]-3′ (SEQ ID NO: 15); BNP-5′, 5′-[…]-3′ (SEQ ID NO: 18); BNP-3′, 5′-[…]-3′ (SEQ ID NO: 19); gapdh-5′, 5′-[…]-3′ (SEQ ID NO: 16); gapdh-3′ 5′-[…]-3′ (SEQ ID NO: 17). Expected PCR product sizes were 468 bp (ANF), 242 bp (BNP), and 349 bp (gapdh).
In a further experiment, the possible induction of an early embryonic gene program upon stimulation by endohelin-1, angiotensin II, or phenylephrine was analysed. To this end, puromycin resistant ES cell-derived cardiomyocytes were obtained as described above; however, after the final […] in puromycin containing medium cells were not transferred to a feeder layer but were kept in suspension culture. Following serum-starvation for 24 h by cultivation in Medium 199, cells were stimulated for 24 h by addition of endothelin-1, phenyleprine, or angiotensin II (Sigma). RNA was extracted and reverse transcribed using standard methods.
Expression of ANF and brain natriuretic peptide (BNP) was analysed by PCR amplification of the respective cDNAs.

In experiment [3] the test system is ES cell-derived cardiomyocytes. In words: Sarcomeric organization, immunostaining for sarcomeric alpha-actinin (FIG. 2). The settings on record: 24 h serum starvation, then 24 h stimulation, endothelin-1 100 nM or phenylephrine 200 μM. It is filed as cell-based, mouse. The protocol: (§1) Hypertrophic cardiomyocytes in that cell culture system are characterized by increased size, increased protein synthesis, increase in sarcomeric assembly and reexpression of a fetal gene program, e.g. enhanced expression of the ANF (atrial natriuretic factor) gene. In order to test if embryonic stem (ES) cell-derived cardiomyocytes display similar features upon stimulation, the following experiments were performed. Green fluorescent cardiomyocytes were generated in accordance with the teachings of in international applications WO99/01552 and WO02/051987 in the following way. ES cells (line D3, ATCC, CRL 1934) that were transfected with a bi-cistronic vector containing the genes for green fluorescent protein (GFP) and puromycin-resistance under the transcriptional control of the […] heavy chain promoter (see WO02/051987), were induced to form aggregates (embryonic bodies, EBs) in the absence of LIF either according to the method in WO99/01552 and WO2/051987, respectively, or as described in European patent application no. 03015401.7. EBs were cultured for 9 days in IMDM (Invitrogen) supplemented with 20% FCS (Invitrogen, batch controlled) at 37° C., 5% CO2 and 95% humidity on 10 cm bacteriological dishes (Greiner). Subsequently, puromycin (Sigma, 2.5 μg/ml) was added to the cell culture medium and cells were cultured for further 10 days. […]

In experiment [4] the test system is ES cell-derived cardiomyocytes. In words: Size of ES cell-derived cardiomyocytes upon hypertrophic stimulation (microscopy, FIG. 1). It is filed as cell-based. The settings on record: 24 h serum starvation, then 24 h stimulation; endothelin-1 100 nM or phenylephrine 200 μM; on inactivated mouse embryonic fibroblasts. The protocol:
as §1

The mark [5] stands for this setting: compound 1 μM, stimulus 100 nM ET-1, 24 h, relative to ET-1-stimulated sample without test compound (=100%).
Setting [6] is: compound 1 μM, stimulus 100 μM PE, 24 h, relative to PE-stimulated sample without test compound (=100%).
[7] abbreviates: compound 100 nM, stimulus 100 nM ET-1, 24 h, relative to ET-1-stimulated sample without test compound (=100%).
[8] abbreviates: compound 100 nM, stimulus 100 μM PE, 24 h, relative to PE-stimulated sample without test compound (=100%).
Where [9] appears, read: compound 10 μM, stimulus 100 nM ET-1, 24 h, relative to ET-1-stimulated sample without test compound (=100%).
[10] abbreviates: compound 10 μM, stimulus 100 μM PE, 24 h, relative to PE-stimulated sample without test compound (=100%).

For `COc1ccc(CCN(C)CCCC(C#N)(c2ccc(OC)c(OC)c2)C(C)C)cc1OC` (stereo not drawn) [Verapamil], the ANF expression in experiment [1] (setting [5]) is 100% (no effect); in experiment [1] (setting [6]), 40%. In addition, the BNP expression is 30% in experiment [1] (setting [5]) and 20% in experiment [1] (setting [6]).
`COC(=O)C1=C(C)NC(C)=C(C(=O)OC)C1c1ccccc1[N+](=O)[O-]` [Nifedipine]: in experiment [1] (setting [7]), the ANF expression is listed as 100% (no effect) and the BNP expression amounted to 10%. In experiment [1] (setting [8]), the ANF expression turned out to be 20% and the BNP expression came to 20%.
Take `CC(C)C[C@@H]1NC(=O)[C@@H](C(C)C)NC(=O)[C@@H]2CCCN2C(=O)[C@@H](CC(=O)O)NC(=O)[C@@H](Cc2c[nH]c3ccccc23)NC1=O` [BQ123] (cyclo(L[dW][dD]P[dV])): in experiment [1], the “ANF induction (up-regulation) upon ET-1 stimulation, in words” value is recorded as “inhibit” and the “BNP induction (up-regulation) upon ET-1 stimulation, in words” value was “inhibit”. Further, the “ANF induction (up-regulation) upon PE stimulation, in words” value in experiment [1] (24 h) is “not”. In experiment [1] (setting [5]), the ANF expression came to 50% and the BNP expression was determined as 60%. In experiment [1] (setting [6]), the ANF expression is 100% (no effect) and the BNP expression was 100% (no effect).
On to `COc1cc2nc(N3CCN(C(=O)c4ccco4)CC3)nc(N)c2cc1OC` [Prazosin], for which, in experiment [1], the “ANF induction (up-regulation) upon ET-1 stimulation, in words” value is on record as “no inhibition” and the “BNP induction (up-regulation) upon ET-1 stimulation, in words” value is listed as “no inhibition”. Besides, in experiment [1] (24 h), the “ANF induction (up-regulation) upon PE stimulation, in words” value is on record as “inhibition” and the “BNP induction (up-regulation) upon PE stimulation, in words” value was “inhibition”. For the same molecule, in experiment [1] (setting [9]), the ANF expression was 100% (no effect) and the BNP expression is reported as 100% (no effect). Also, in experiment [1] (setting [10]), the ANF expression worked out at 40% and the BNP expression is 40%.
For “Angiotensin II [hypertrophic agonist (Sigma) used as stimulus]”, in experiment [2], the “ANF expression compared to control” value is recorded as “modest increase” and the “BNP expression compared to control” value is reported as “modest increase”.
For the molecule `CN[C@@H]1C[C@H]2O[C@@](C)([C@@H]1OC)n1c3ccccc3c3c4c(c5c6ccccc6n2c5c31)C(=O)NC4` [Staurosporine], in experiment [1], the “ANF induction (up-regulation) upon ET-1 stimulation, in words” value is given as “inhibited” and the “BNP induction (up-regulation) upon ET-1 stimulation, in words” value is reported as “inhibited”. Besides, in experiment [1] (24 h), the “ANF induction (up-regulation) upon PE stimulation, in words” value is recorded as “inhibited” and the “BNP induction (up-regulation) upon PE stimulation, in words” value is recorded as “inhibited”. In experiment [1] (setting [7]), the ANF expression was determined as 30% and the BNP expression is reported as 30%. Moreover, in experiment [1] (setting [8]), the ANF expression was found to be 30% and the BNP expression is on record as 30%.
In the case of “endothelin-1 (CSCSSLMDKECVYFCHLDIIW; ends and bridges not checked; cysteine pairing not given here; UniProt P05305 53-73, looked up) [hypertrophic agonist (Sigma) used as stimulus]”, in experiment [3], the “sarcomeric organization upon stimulation” value is “increase in sarcomeric organization”. In addition, in experiment [2], the “ANF expression compared to control” value is “increased” and the “BNP expression compared to control” value is “increased”. For the same molecule, in experiment [4], the “cardiomyocyte size upon stimulation” value was “increase in size”.
`CNC[C@H](O)c1cccc(O)c1` [phenylephrine]: the “sarcomeric organization upon stimulation” value in experiment [3] is “increase in sarcomeric organization”. Moreover, in experiment [2], the “ANF expression compared to control” value is given as “increased” and the “BNP expression compared to control” value is listed as “increased”. For the same molecule, the “cardiomyocyte size upon stimulation” value in experiment [4] was “increase in size”.
For the molecule `CCCC[C@@H](NC(=O)[C@@H](Cc1cn(C(=O)OC)c2ccccc12)NC(=O)[C@H](CC(C)(C)C)NC(=O)N1[C@H](C)CCC[C@@H]1C)C(=O)O` [BQ788], in experiment [1], the “ANF induction (up-regulation) upon ET-1 stimulation, in words” value is given as “inhibit” and the “BNP induction (up-regulation) upon ET-1 stimulation, in words” value is reported as “inhibit”. For the same molecule, in experiment [1] (24 h), the “ANF induction (up-regulation) upon PE stimulation, in words” value was “not”. Also, in experiment [1] (setting [5]), the ANF expression is 70% and the BNP expression is 70%. In addition, in experiment [1] (setting [6]), the ANF expression is 100% (no effect) and the BNP expression is 100% (no effect).

For the origin of these results see US9726662B2, “Assay for drug discovery based on in vitro differentiated cells” (AXIOGENESIS AG, priority 2004, dated 2017).
